Measured values: patent US5541199A, “Chroman-2-ylmethylamino derivatives” (American Home Products Corporation, priority 1995, dated 1996)

What was measured:
5-HT1a = molecular target: T1, 5-HT1a (Homo sapiens, UniProt P08908); assay: 5-HT1a IC50; format: binding
T1 sequence (P08908 1-422): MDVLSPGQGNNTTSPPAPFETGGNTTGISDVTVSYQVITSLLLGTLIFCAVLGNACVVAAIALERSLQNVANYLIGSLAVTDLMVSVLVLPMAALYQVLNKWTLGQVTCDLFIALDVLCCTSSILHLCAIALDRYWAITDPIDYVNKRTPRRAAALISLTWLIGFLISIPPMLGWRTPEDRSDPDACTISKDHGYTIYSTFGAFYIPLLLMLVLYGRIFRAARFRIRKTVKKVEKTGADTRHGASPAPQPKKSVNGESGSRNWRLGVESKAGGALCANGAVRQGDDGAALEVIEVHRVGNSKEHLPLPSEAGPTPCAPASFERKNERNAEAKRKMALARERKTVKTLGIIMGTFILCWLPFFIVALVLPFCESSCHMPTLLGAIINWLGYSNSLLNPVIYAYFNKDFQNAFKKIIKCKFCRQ

α1 = α1 IC50; format: binding
D2 [1] = molecular target: T2, D2 (Rattus norvegicus, UniProt P61169); assay: Affinity for the dopamine autoreceptor: 3H-quinpirole (Quin.) binding, homogenized rat striatal brain tissue; design: homogenized rat striatal brain tissue; from tissue; host or cells: rat striatal brain tissue, homogenized
T2 sequence (P61169 whole entry): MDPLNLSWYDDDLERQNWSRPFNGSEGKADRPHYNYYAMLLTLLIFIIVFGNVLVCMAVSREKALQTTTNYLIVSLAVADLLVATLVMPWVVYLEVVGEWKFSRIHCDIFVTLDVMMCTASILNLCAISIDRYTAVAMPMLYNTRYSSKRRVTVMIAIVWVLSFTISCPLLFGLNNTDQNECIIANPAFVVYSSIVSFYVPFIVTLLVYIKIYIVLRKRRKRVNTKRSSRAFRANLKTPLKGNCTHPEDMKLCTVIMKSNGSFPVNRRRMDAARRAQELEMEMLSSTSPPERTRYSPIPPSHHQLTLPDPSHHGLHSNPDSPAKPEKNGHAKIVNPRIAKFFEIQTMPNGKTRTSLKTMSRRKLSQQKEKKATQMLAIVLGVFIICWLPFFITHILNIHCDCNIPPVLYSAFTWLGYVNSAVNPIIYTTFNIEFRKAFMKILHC

D2 [2] = molecular target: T2, D2; assay: Affinity for the dopamine D-2 receptor: 3H-spiroperidol (Spiper.) binding, homogenized limbic brain tissue; design: homogenized limbic brain tissue is incubated with; from tissue; host or cells: limbic brain tissue, homogenized

O=C1CCC(=O)N1CCCNCC1CCc2ccc(O)cc2O1 (centres unmarked) [Example 3d, 1-{3-[(7-Hydroxy-chroman-2-ylmethyl)-amino]-propyl}-pyrrolidine-2,5-dione]
IC50 (5-HT1a): 303 nM | IC50 (α1): 277 nM | IC50 (D2 [1]; 3H-quinpirole, rat striatal brain tissue): 9.29 nM | Ratio (D2 [1]; not defined in print, values match D2 Spiper. IC50 / D2 Quin. IC50): 234 | IC50 (D2 [2]): 2180 nM
